Measured values from patent US5977442A, “Salicylic acid induced map kinase and its use for enhanced disease resistance in plants” (priority 1997, dated 1999).

How the values were obtained:
p48 SIP kinase [1] = test: In-gel kinase activity assay (MBP substrate) in extracts of treated tobacco suspension cells: activation of p48 SIP kinase; format: cell-based, Nicotiana tabacum cv Xanthi nc; conditions: tobacco suspension cells; for activation of 48 kDa (p48 SIP) kinase: 250 μM, MBP substrate; for duration of SIP kinase activation relative to SA: data not shown for analogues
Protocol: The cell suspension culture was derived from callus tissue originated from leaves of Nicotiana tabacum cv Xanthi nc and grown in MS medium supplemented with 1 mg/L α-naphthaleneacetic acid, 0.1 mg/L 2,4-dichlorophenoxyacetic acid, 0.1 mg/L benzyladenine, and 3% sucrose. Log phase cells were used three days after a 1:10 dilution. Treatment with H2 O2, SA and its analogues was performed in the original flasks in the dark to avoid any stresses associated with transfer. At various times, 10 mL cells (approximately 0.2 to 0.3 g fresh weight of cells) were harvested by filtration. The cells were quickly frozen in liquid nitrogen and stored at -80° C. until analysis.
Leaf discs were first ground to a fine powder in 1.5 ml microcentrifuge tubes using small plastic pestles. After adding 0.25 mL extraction buffer (100 mM Hepes, pH 7.5, 5 mM EDTA, 5 mM EGTA, 10 mM DTT, 10 mM Na3 VO4, 10 mM NaF, 50 mM β-glycerolphosphate, 1 mM phenylmethylsulfonyl fluoride, 5 μg/mL antipain, 5 μg/mL aprotinin, 5 μg/mL leupeptin, 10% glycerol, 7.5% polyvinylpolypyrrolidone), the mixture was sonicated for 15 seconds with a W-375 Sonicator (Heat System-Ultrasonics, Inc., N.Y.) fitted with a microprobe at setting 4 and 80% duty cycle. To prepare extracts from treated cells, cells were mixed with two volumes (w/v) of extraction buffer and were then sonicated twice for 15 seconds each in 1.5 mL microcentrifuge tube. After centrifugation at 13,000 rpm for 20 minutes, supernatants were transferred into clean tubes, quickly frozen in liquid nitrogen and stored at -80° C.
The in-gel kinase assay was performed as described previously (Zhang et al., 1993). Extracts containing 10 μg protein were electrophoresed on 10% SDS-polyacrylamide gels imbedded with either 1 mg/mL of casein, 1 mg/mL histone (Type III-SS, Sigma, MO), 1 mg/mL BSA, or 0.25 mg/mL of MBP in the separating gel as substrate for the kinase. After electrophoresis, SDS was removed by washing the gel with washing buffer (25 mM Tris, pH 7.5, 0.5 mM DTT, 0.1 mM Na3 VO4, 5 mM NaF, 0.5 mg/mL BSA, 0.1% Triton X-100 [v/v]). The buffer was changed three times, each for 30 minutes at room temperature. The kinases were allowed to renature in 25 mM Tris, pH 7.5, 1 mM DTT, 0.1 mM Na3 VO4, 5 mM NaF at 4° C. overnight with three changes of buffer. The gel was then incubated at room temperature in 30 mL reaction buffer (25 mM Tris, pH 7.5, 2 mM EGTA, 12 mM MgCl2, 1 mM DTT, 0.1 mM Na3 VO4) with 200 nM ATP plus 50 μCi γ-^32 P-ATP (3000 Ci/mmole) for 60 minutes. The reaction was stopped by transferring the gel into 5% TCA (w/v)/1% NaPPi (w/v). The unincorporated γ-^32 P-ATP was removed by washing in the same solution for at least 6 hours with 5 changes of buffer. The gel was dried onto 3 MM paper and exposed to Kodak XAR-5 film. Prestained size markers (Bio-Rad, CA) were used to calculate the size of the kinases. Quantitation of the relative kinase activities were done using a phosphoimager (Molecular Dynamics Inc., CA).

[2] = tested on: PR gene expression and enhanced disease resistance; conditions: Conrath et al., 1995; cited from earlier work
p48 SIP kinase [3] = biological target: T1, p48 SIP kinase (Nicotiana tabacum, UniProt A0A1S3Z5Y0); test: Kinetic properties, substrates, cofactors and pH dependence of p48 SIP kinase (in-solution kinase assay); format: biochemical, tobacco; conditions: for use as phospho-donor / phosphate donor: data not shown; for metal ion requirement of the enzyme: FIG. 10B
T1 construct: endogenous in cells; host or cells: SA-treated tobacco suspension culture cells (purified through the poly-L-lysine agarose step)
Protocol: FIGS. 10A and 10B show a pair of graphs illustrating the effect of pH (FIG. 10A), Mg^2+ and Mn^2+ (FIG. 10B) on p48 SIP kinase activity. Approximately 0.5 unit of partially purified enzyme was used in each test. Buffers used for measuring the effect of pH were 50 mM 2-[N-morpholino]ethanesulfonic acid (Mes, pH 5.0-8.0, .circle-solid.), 50 mM Tris (pH 6.0-9.5, .tangle-solidup.), and 50 mM 3-[cyclohexylamino]-1-propanesulfonic acid (Caps, pH 9.0-12.0, .box-solid.). For testing the effects of Mg^2+ (.circle-solid.), and Mn^2+ (.tangle-solidup.), buffer B from the last purification step was first exchanged to Mg^2+ -free buffer using a desalting column. Mg^2+ was not added in reactions for testing the effect of Mn^2+.
FIG. 11 is a graph depicting the protein substrate preference of the p48 SIP kinase. About 0.5 unit of partially purified enzyme was used in each reaction. The assay conditions were as described below in Example 1, except various concentrations of MBP (.circle-solid.), histone (.tangle-solidup.), and casein (.box-solid.) were used.
(§1) Unless specifically indicated, assays were performed at room temperature for 20 minutes in a final volume of 15 μl containing 0.5 mg/mL of MBP, 50 μM of γ-^32 P-ATP (about 3000-6000 cpm/pmole), 25 mM Tris pH 7.5, 5 mM MgCl2, 1 mM EGTA, 1 mM DTT, and enzyme. The reaction was terminated by the addition of equal volume of 150 mM H3 PO4. Twenty μL of the mixture was spotted onto an 8-well phosphocellulose filter strip (Pierce, Ill.). After washing with 150 mM H3 PO4 extensively, the phospho-protein was eluted with 0.4 mL of 1 N NaOH, and the radioactivity was determined by liquid scintillation counting. Total cpm in the reaction mixture was also determined in order to calculate the specific activity of the enzyme preparation. One unit of p48 SIP kinase was defined as the amount of enzyme that will catalyze the transfer of 1 pmole of phosphate from ATP to MBP in 1 minute.

p48 SIP kinase [4] = biological target: T1, p48 SIP kinase; test: In-solution kinase assay: effects of various reagents on p48 SIP kinase activity; format: biochemical, tobacco; conditions: for Relative Activity: 20 min
Protocol: as §1
^a For each reagent, a dose response curve was measured under standar
assay conditions. About 0.5 unit of enzyme was used for each reaction.
Control was the enzyme activity in the absence of reagent.

p48 SIP kinase [5] = test: Treatment of p48 SIP kinase with phosphatases; format: biochemical, tobacco; conditions: okadaic acid against PP1; Na3 VO4 against YOP
Protocol: FIG. 13 is a histogram showing inactivation of p48 SIP kinase by phosphatase treatment. Approximately 20 units of the SIP kinase was treated with either the serine/threonine-specific phosphatase PPI (0.1 units) or the tyrosine-specific protein phosphatase YOP (0.5 units) for 10 min (bars 2 to 5) or 30 min (bars 7 to 10) at 30° C. in the presence or absence of a phosphatase inhibitor. Bars 1 and 6 represent the control without phosphatase or phosphatase inhibitor; bars 2 and 7, PPI; bars 3 and 8, PPI plus okadaic acid (1 μM); bars 4 and 9, YOP; bars 5 and 10, YOP plus Na3 VO4 (1 mM). Before assaying for SIP kinase activity, the phosphatase inhibitors were added to all of the reactions to the same final concentrations.
The phosphatase inhibitors present in the purified p48 SIP kinase preparation were first removed by dialysis against buffer B lacking β-glycerophosphate and Na3 VO4 in a 0.5-mL 10 K dialysis cassette (Slide-A-Lyzer; Pierce). For treatment with serine/threonine protein phosphatase PP1 (Calbiochem, San Diego, Calif.), MnCl2, DTT, and BSA were added to aliquots of the SIP kinase preparation to final concentrations of 200 μm, 5 mM and 100 μg/mL respectively. Then 0.1 unit of PP1 was added, and the reaction mixture was incubated at 30° C. in the presence or absence of 1 μM of the phosphatase inhibitor okadaic acid (Calbiochem). […]

TMV = conditions: Dunigan et al., 1995; cited from earlier work
PR-1 gene expression = conditions: Conrath et al., 1997; cited from earlier work
[6] = tested on: p48 SIP kinase (precipitation by 4G10 antibody); test: Immunoprecipitation-kinase activity assay with 4G10 antibody and phospho-amino acid competitors; format: binding, Nicotiana tabacum cv Xanthi nc; conditions: 1 mM competitor
Protocol: About 25 μL packed volume of protein A-agarose was added, and the incubation was continued for another 2 hours. Agarose bead-protein complexes were pelleted by brief centrifugation. After washing with immunoprecipitation buffer three times, 1× SDS sample buffer was added and the sample boiled for 3 minutes. After centrifugation, the supernatant fraction was electrophoresed on 10% SDS-PAGE gel, and the in-gel kinase assay was performed.

[7] = biological target: p48 SIP kinase (salicylic acid-induced protein kinase), activated form from SA- or H2O2-treated tobacco cells, in extracts or purified (tobacco (Nicotiana tabacum cv Xanthi nc))
[8] = biological target: myelin basic protein (MBP)

T1 sequence (A0A1S3Z5Y0 whole entry): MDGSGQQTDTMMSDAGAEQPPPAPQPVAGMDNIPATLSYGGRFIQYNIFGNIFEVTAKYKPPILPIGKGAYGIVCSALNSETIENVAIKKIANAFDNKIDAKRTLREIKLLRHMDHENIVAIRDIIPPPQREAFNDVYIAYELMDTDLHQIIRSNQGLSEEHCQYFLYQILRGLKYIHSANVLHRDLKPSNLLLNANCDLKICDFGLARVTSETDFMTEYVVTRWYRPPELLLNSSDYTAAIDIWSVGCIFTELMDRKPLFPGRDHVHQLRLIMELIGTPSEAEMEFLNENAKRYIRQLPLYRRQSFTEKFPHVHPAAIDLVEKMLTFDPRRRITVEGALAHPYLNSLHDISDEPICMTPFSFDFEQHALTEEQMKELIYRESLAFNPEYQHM

O=C(O)c1cccc(O)c1 [3-HBA, 3-hydroxybenzoic acid]
activation of 48 kDa (p48 SIP) kinase (p48 SIP kinase [1]): poor activators

O=C(O)c1ccc(Cl)cc1O [4-CSA, 4-chloroSA]
induction of PR gene expression and enhanced disease resistance [2]: induce PR gene expression and enhanced disease resistance in tobacco
activation of 48 kDa (p48 SIP) kinase (p48 SIP kinase [1]): activated the SIP kinase to similar extents as SA
duration of SIP kinase activation relative to SA (p48 SIP kinase [1]): more sustained activation of the SIP kinase than SA

O=C(O)c1ccc(O)cc1 [4-HBA]
activation of 48 kDa (p48 SIP) kinase (p48 SIP kinase [1]): poor activators

O=C(O)c1cc(Cl)ccc1O [5-CSA]
induction of PR gene expression and enhanced disease resistance [2]: induce PR gene expression and enhanced disease resistance in tobacco
activation of 48 kDa (p48 SIP) kinase (p48 SIP kinase [1]): activated the SIP kinase to similar extents as SA
duration of SIP kinase activation relative to SA (p48 SIP kinase [1]): more sustained activation of the SIP kinase than SA

[Ca+2] [Ca^2+]
calcium requirement for activity (p48 SIP kinase [3]): lacks a calcium requirement for activity
Relative Activity (p48 SIP kinase [4]; 0.5 mM): 100 % of control
Relative Activity (p48 SIP kinase [4]; 5.0 mM): 50 % of control
effect on p48 SIP kinase activity (p48 SIP kinase [4]; partially purified p48 SIP kinase): inhibited the enzyme

Nc1ncnc2c1ncn2[C@@H]1O[C@H](COP(=O)(O)OP(=O)([O-])OP(=O)([O-])O)[C@@H](O)[C@H]1O.[Mg+2] [Mg^2+ -ATP]
Vmax (p48 SIP kinase [3]): 0.39 µmol/min/mg
Km (p48 SIP kinase [3]; Mg^2+ -ATP): 24 µM

Nc1nc2c(ncn2[C@@H]2O[C@H](COP(=O)(O)OP(=O)(O)OP(=O)(O)O)[C@@H](O)[C@H]2O)c(=O)[nH]1 [Mg^2+ -GTP]
use as phospho-donor / phosphate donor (p48 SIP kinase [3]): could not use
use as phospho-donor / phosphate donor (p48 SIP kinase [3]; listed as GTP): unable to use GTP as a phosphate donor

[Mg+2] [Mg^2+]
metal ion requirement of the enzyme (p48 SIP kinase [3]): absolute requirement
MgCl2 concentration up to which kinase activity was strongly stimulated (p48 SIP kinase [3]; total concentration): ≤ 2 mM

[Mn+2] [Mn^2+]
metal ion requirement of the enzyme (p48 SIP kinase [3]): could not substitute for Mg^2+

[Na+].[Na+].[Na+].[O]=[V]([O-])([O-])[O-] [Na3 VO4]
prevention of phosphatase inactivation of SIP kinase (p48 SIP kinase [5]): could be prevented

C=C1[C@@H](O)[C@@H]2O[C@]3(CC[C@H](/C=C/[C@@H](C)[C@@H]4CC(C)=C[C@@]5(O[C@H](C[C@@](C)(O)C(=O)O)CC[C@H]5O)O4)O3)CC[C@H]2O[C@@H]1[C@@H](O)C[C@H](C)[C@H]1O[C@@]2(CCCCO2)CC[C@H]1C [okadaic acid]
inhibition of lesion formation after TMV infection (TMV): lesion formation after TMV infection was inhibited
blocking of SA-mediated induction of PR-1 gene expression (PR-1 gene expression): blocked the SA-mediated induction of PR-1 gene expression
prevention of phosphatase inactivation of SIP kinase (p48 SIP kinase [5]): could be prevented

N[C@@H](Cc1ccc(OP(=O)(O)O)cc1)C(=O)O [phosphotyrosine]
inhibition of precipitation of p48 SIP kinase [6]: inhibited precipitation of the p48 SIP kinase

Poly-L-glutamate
Relative Activity % of control (% of control at 500 µg mL^-1) [7]: 50

Poly-L-glutamine
Relative Activity % of control (% of control at 500 µg mL^-1) [7]: 100

Poly-L-lysine
Relative Activity % of control (% of control at 25 µg mL^-1) [7]: 50

p48 SIP kinase (salicylic acid-induced protein kinase), activated form from SA- or H2O2-treated tobacco cells, in extracts or purified (enzyme)
phosphorylation of MBP, in-solution kinase assay (Km for MBP) [8]: 0.19 mg/mL

protamine
Relative Activity % of control (% of control at 25 µg mL^-1) [7]: 50
